In patent US20250100961A1, “CHEMICAL ENTITIES FOR TREATING ACUTE MUSCULOSKELETAL PAIN, NON-SPECIFIC LOW-BACK PAIN, INFLAMMATORY ARTHRITIS RELATED DISEASES AND CONDITIONS, AND COMPOSITIONS AND METHODS THEREOF” (X-Cutag Therapeutics (Suzhou) Limited, priority 2023, published 2025):
One block for each molecule: values may come before it.

What was measured:
[1] = Co-administration of methocarbamol and CTG06-05 in rats, plasma time-concentration curves; format: in vivo, rat
Excerpt: Differentiation in drug toxicity profiles. Methocarbamol and CTG06-05 were co-administered in rats and plasma samples were collected at various timepoints. […] This indicates a distinct toxicity profile for CTG06-05 compared to methocarbamol, particularly when the toxicity is driven by Cmax. Cmax is the maximum (or peak) plasma concentration that a drug achieves in a specified compartment or test area of the body after the drug has been administered.
Differentiation in drug distribution volumes. Concentration ratios of CTG06-05 to methocarbamol in rat plasma samples from the aforementioned experiment were determined. […] Drug distribution volume (Vd) is defined as the total amount of drug in the body divided by its concentration in plasma. Vd reflects the degree to which the drug is present in extravascular tissues rather than in the plasma. Therefore, when the total amount of drug is the same, for example, 1:1 co-administration, drug plasma concentration is a direct parameter in Vd comparison. In other words, the higher the concentration, the lower the Vd.

[2] = Co-incubation of methocarbamol and CTG06-05 in rat liver microsomes (1/1); format: in vitro ADME; conditions: co-incubated 1/1, FIG. 1
Excerpt: Differentiation in drug elimination half-lives. […] The elimination half-life (T1/2) is the time it takes for the elimination processes to reduce the concentration level or the amount of drug in the system by 50%. Elimination half-life is a composite pharmacokinetic parameter determined by both clearance and volume of distribution (Vd). Elimination half-life is increased by an increase in volume of distribution or a decrease in clearance, and vice versa.
Preparation of Reaction Mixture: The microsome reaction mixtures were prepared as follows: for a total volume of 285 μL of reaction mixture, 274.5 μL of 1×PBS, 3 μL of the test compound, and 7.5 μL of 5 mg/mL microsomes were added. As a negative control, microsome-free samples were prepared by substituting the microsome solution in the reaction mixture with an equal volume of 1×Phosphate Buffer Solution (pH 7.4). The reaction mixture was prepared in triplicates. In addition, dextromethorphan was used in this assay as a positive control.
Incubation and Processing of Reaction: The reaction mixture was initiated by adding 10 μL of NADPH and incubated in a water bath at 37° C. […]
LC-MS/MS analysis: Reversed-phase liquid chromatographic separation was carried out using ACE 3 C18 column (50×2.1 mm id, 3 μm). […] Compounds were monitored in positive mode over a five-minute acquisition period using a triple quadrupole mass spectrometer. […]

[3] = IV co-administration of CTG06-05 and methocarbamol (1:1) to mice, plasma concentrations by LC-MS/MS; format: in vivo; conditions: mouse plasma, 1/1 co-administration, IV 0.5 mg/kg each, FIG. 2
Procedure: Example 2: Co-Administration of CTG06-05 and Methocarbamol (1:1) to Mice and LC-MS/MS Analysis of Mouse Plasma Samples
Mouse plasma samples were collected at intervals of 2, 7, 10, 15, 30, 45, and 60 minutes after an IV dose of CTG06-05 and methocarbamol at a 1:1 ratio (0.5 mg/kg each). Plasma samples were extracted via protein precipitation. The supernatant at each time point was transferred to a clean vial and analyzed by LC-MS/MS as described in Example 1.

[4] = test system: liver; conditions: in vivo; cited from earlier work
[5] = oral; cited from earlier work
[6] = test system: skeletal muscle contractility or motor nerve fiber; conditions: cited from earlier work
[7] = Administration of CTG06-06 and methocarbamol to rats, LC-MS/MS of urine for parent drug and conjugates; format: in vivo; conditions: rat urine
Excerpt: Differentiation in drug conjugation reactions. […] […] Conjugation is a phase II metabolism reaction in which an acid, for example, glucuronic acid, acts as a conjugating agent to link to a phase I metabolite covalently. The conjugate so formed would be excreted to urine. To most drugs, this is a necessary detoxicating process. As for methocarbamol, this could be a disadvantage because the acid directly forms a conjugate with the drug itself, not its metabolite, and thus, to reduce drug plasma concentration level immediately after administration. This is due to the presence of an OH group in the chemical structure of methocarbamol, which readily allows it to form conjugates with an acid. To inhibit this pathway, CTG06-06 was designed with the OH group replaced by a fluorine (F). This modification is anticipated to slow the drug elimination rate while maintaining a consistently high drug plasma concentration.
Example 3: Co-Administration of CTG06-06 and Methocarbamol (1:1) to Rats and LC-MS/MS Analysis of Rat Urine Samples
Rat urine samples were collected after an oral dose of CTG06-06 and methocarbamol at 1:1 ratio (0.5 mg/kg each).

drug distribution volume (Vd) compared to methocarbamol ([1]; inferred from plasma concentrations after 1:1 co-administration): lower Vd value than methocarbamol | initial concentration in plasma compared to methocarbamol ([1]; rat plasma, co-administered, FIG. 2): lower than that of methocarbamol | concentration ratio of CTG06-05 to methocarbamol in plasma ([1]; rat plasma, co-administered, FIG. 3): increased with time | C0 compared to methocarbamol [3]: lower C0 | T1/2 compared to methocarbamol [3]: longer T1/2
SMILES: [2H]c1c([2H])c([2H])c(OC([2H])([2H])[2H])c(OCC(O)COC(N)=O)c1[2H] (stereo not drawn) [CTG06-05]
later concentration in plasma compared to methocarbamol ([1]; rat plasma, co-administered, later timepoints, FIG. 2): eventually exceeded that of methocarbamol | drug elimination half-life compared to methocarbamol [2]: longer drug elimination half-life compared to methocarbamol

SMILES: COc1ccccc1OCC(O)COC(N)=O (stereo not drawn) [methocarbamol]
liver toxicity [4]: No liver toxicity is observed | time to peak plasma concentration [5]: two | direct effect on skeletal muscle contractility or motor nerve fiber [6]: no direct effect | conjugates of the drug in urine ([7]; co-administered, oral 0.5 mg/kg each, LC-MS/MS, FIG. 4): methocarbamol and its conjugates were detected

SMILES: COc1ccccc1OCC(F)COC(N)=O (stereo not drawn) [CTG06-06]
drug conjugation reaction ([7]; separate administration (FIG. 4 legend)): eliminates the drug conjugation reaction in rats
